In patent publication US20020048812A1, “Isolation and in vitro differentiation of conditionally immortalized murine olfactory receptor neurons” (priority 2000, published 2002):
Entries after “also recorded” stand apart in the source; their conditions may differ.

Assays:
Type in all cases: cell-based, mouse
3NA12 cells = assay: Calcium imaging (Fura-2) of odorant responses in clone 3NA12; details: 10 μM single odorant; for Cells responding to each odorant: 1256 cells; for Cells responding to the odorant (increase in intracellular calcium concentration): total of 1256 cells in nineteen experiments, permissive conditions
Procedure: Prior to experiments (2-4 days), cells were plated onto glass coverslips and incubated in permissive conditions. To prepare for stimulation, cells were loaded with Fura-2 ([…]) for 30 minutes at 33° C., washed, and allowed to equilibrate for a further 30 minutes at room temperature. At the beginning of the experiment, cells were washed (W) to determine whether the mechanical disturbance associated with changing solution affected intracellular calcium concentrations.
To determine whether cells from the 3NA12 clone were capable of functional responses to odorants, single odorants were applied to cells loaded with Fura-2. […] Since the onset of odorant receptor expression is at c. E13 in the rat (Strotmann et al., 1995), and each of the components of the signal transduction pathway is present in cells cultured in permissive conditions, cells at permissive conditions were chosen for all subsequent experiments.
Cloned olfactory receptor neurons were plated onto glass coverslips up to one week before imaging. On the day of analysis, the culture medium was removed and replaced with MDV containing 2 μM Fura-2-AM (Molecular Probes, Eugene, Oreg.) and 0.2% Pluronic F-127 (Sigma) dissolved in DMSO. Cells were incubated at appropriate culture temperatures (33° C. or 37° C.) for at least 30 minutes, rinsed and allowed to equilibrate in medium for 30 minutes prior to experiments. Additionally, to ensure that a response could not be induced mechanically, each experiment was started by washing the cells with bath solution in the same manner used in odorant application. For solution exchange, 5 ml of bath solution or odorant test solution was pipeffed manually into the bath (volume, 300 μl) fitted with a continual suction pump. This ensured complete replacement of the bath solution with the incoming solution without altering bath volume. Single odorants were applied to the cloned cell line 3NA12 and mixtures of odorants were applied to primary cultures of mouse olfactory bulb neurons and rat ORNs. […] When single odorants were used, they were taken from Mixture 2. Stock solutions of odorants (20 mM in DMSO) were made up every second day and diluted 1:2000 in bath solution (final concentration, 10 μM each) within seconds of application. The bath solution contained 140 mM NaCl, 5 mM KCl, 2 mM CaCl2, 10 mM HEPES and 10 mM glucose at pH 7.4. Calcium imaging was performed as described previously (Krautwurst et al., 1998; Grynkiewicz et al., 1985), in which ratiometric measurements were obtained using the Zeiss/Attofluor-Ratiovision imaging system on a Zeiss Axiovert 135 microscope fitted with an F Fluor 20×/1.30 lens. Cells were illuminated at 340 nm and 380 nm and the emission at 510 nm was monitored using an intensified CCD camera. The Attofluor-Ratiovision software was used to derive the Ca^2+-dependent ratio. Solutions of CaCl2 (1 mM) and EDTA (1 mM) containing Fura-2 pentasodium salt ([…], Molecular Probes) were used to provide a two-point calibration of the experimental set-up as directed by the instrument manufacturer (Atto Instruments, Rockville, Md.).

[1] = test system: NST+ cells in the heterogeneous culture; assay: Counting NST+ cells (anti-NST labeling) in heterogeneous olfactory cell cultures with growth factors; details: for Effect on the number of NST+ cells (in words): permissive conditions (33° C.)
Procedure: FIG. 2A. Interferon causes a significant, dose-dependent increase in the number of NST+ cells in the heterogeneous culture, with an EC50 of 0.4 U.ml^−1. Cells were incubated at 33° C. and were stained with anti-NST and rhodamine-coupled secondary antibodies seven days after plating. Cell counts were obtained from ten randomly selected areas in each experiment. Data were normalized to the mean number of NST+ cells in the absence of interferon and each point represents the mean ±S.E.M from three experiments.
FIG. 2B. EGF (•) and NGF (□) both have mitogenic effects in permissive conditions over and above the effect of interferon. NST+ cells were counted as described in (A) and were normalized to baseline levels in the presence of interferon (40 U.ml^−1). […] Except for the presence of interferon (40 U.ml^−1), all experimental conditions were as in A.
To determine the optimal conditions for cell survival, growth, differentiation and maturation, cells were cultured in permissive and non-permissive conditions in the presence of interferon, EGF, NGF, BDNF and NT-3. […] The effects of EGF, NGF, BDNF and NT-3 on cell maturation in non-permissive culture conditions were
To keep the amount of expressed TAg to the minimum required for immortalization (Noble et al., 1995), heterozygous offspring from homozygous male H-2K^b-tsA58 transgenic and C57B1 female mice (Charles River Laboratories, Wilmington Mass., and Jackson Laboratory, Bar Harbor, Me., respectively) were used to generate the conditionally immortal neuronal cell culture. Cells were isolated in a procedure modified from a previously established technique (Ronnett et al., 1991). Briefly, post-natal day 1-3 animals were decapitated and the heads were sectioned longitudinally. The olfactory epithelium and nasal septum were removed and placed in an Eppendorf tube containing 500 μl culture medium. The culture medium consisted of Minimum Essential Medium in which the L-valine has been replaced by D-valine (MDV). This was supplemented with 10% fetal bovine serum (FBS), 4 mM glutamine, kanamycin (100 μg.ml^−1), gentamicin (50 U.ml^−1) and amphotericin B (2.5 μg.ml^−1; all from Gibco BRL, Gaithersburg, Md.). The MDV medium was chosen because fibroblasts lack D-amino acid oxidase and the reduction of L-valine inhibits fibroblast survival and growth (Gilbert et al., 1986). Tissue was centrifuged at low speed for two minutes and then most of the medium was removed. The cell pellet was chopped briefly with a pair of fine-point scissors before being resuspended in supplemented cell culture medium. The resultant cell clumps and cell suspension were plated out onto 2- or 4-chamber glass slides (Nunc, Naperville, Ill.) or plastic dishes (Fisher Scientific, Pittsburgh, Pa.). To enhance ORN adhesion, all cell culture materials were pretreated with laminin (0.125 mg.ml^−1 in serum-free media, Collaborative Biomedical Products, Bedford, Mass.) for at least 12 hours, prior to plating. Cells were maintained in culture at 33° C. (the permissive temperature for the SV40 TAg) and, to stimulate transcription of the transgene, the culture medium was supplemented with murine γ-interferon (40 U.ml^−1, Genzyme, Cambridge, Mass.). Provisionally, in permissive conditions, the cell culture medium was supplemented with epidermal growth factor (EGF, 20 ng.ml^−1, Gibco BRL) and 2.5 S nerve growth factor (NGF, 10 ng.ml^−1, Gibco BRL) before thorough characterizations of their effects were made in later experiments.
To determine optimum conditions for cell survival, growth, differentiation or maturation, numerous combinations of culture conditions were tested. These included i) removal of the olfactory epithelium from newborn, 4-week-old, and sexually mature animals, ii) subjecting tissue to digestion by trypsin (Gibco BRL, 0.5 g.l^−1 for 60 minutes at 37° C.), iii) addition of growth factors to the culture medium and iv) the use of diverse culture media. […]

[2] = test system: olfactory marker protein (OMP); assay: OMP expression by Western blot in cells in non-permissive conditions; details: 37° C., heterogeneous cell cultures, 15 μg protein per lane
Procedure: FIG. 2C. Effects of EGF, NGF, BDNF and NT-3 on OMP expression as determined by Western blot. Cells were maintained in non-permissive conditions at 37° C. in the absence of growth factors (C) or in presence of EGF (E), NGF (N), BDNF (B) or NT-3 (3). Samples were isolated from the heterogeneous cell cultures and from olfactory tissue (T), and were separated on a SDS-polyacrylamide gel (15 μg protein per lane). OMP is a 19 kD protein and, in situ, is expressed only in mature olfactory receptor neurons. OMP was not detected in control cells (C), cultured in the absence of growth factors or in cells incubated in the presence of EGF.
assayed by Western blot detection of olfactory marker protein (OMP), a marker of mature olfactory receptor neurons (Margolis, 1988).
Cells were always maintained in permissive culture conditions except when attempts were made to obtain a differentiated phenotype through transgene inactivation. In this case, cells were incubated in non-permissive culture conditions, i.e. at 37° C. in γ-interferon-free media for seven days, before the effects of transgene inactivation were determined. The effects of EGF, NGF, BDNF and NT-3 in promoting cell maturation/differentiation were assessed and, based on those experiments, BDNF and NT-3 were routinely added to the culture medium for cells in non-permissive culture conditions. In both culture environments, the air was kept humidified and contained 5% CO2.
Cells were scraped into a cold isolation buffer containing 20 mM Na(N-tris[hydroxymethyl]methyl-2-aminoethanesulfonic acid) (Na TES), 10 mM mannitol and 1% Triton X-100 at pH 7.4. The isolation buffer was supplemented with phenylmethylsulfonyl fluoride (30 μg.ml^−1), leupeptin (2 μg.ml^−1), benzamidine (16 μg.ml^'1), pepstatin (2 μg.ml^−1), and lima bean trypsin inhibitor (50 μg.ml^−1) to prevent protease activity. After five freeze/thaw cycles, cell extracts were centrifuged at 2,000 g for 5 minutes to pellet nuclei and cell debris. […]

[3] = 33° C., 100 ng.ml^−1, in the presence of 40 U.ml^−1 interferon, normalized to that point

CC(=O)c1ccccc1 [acetophenone]
Cells responding to each odorant (3NA12 cells): ~1% | Cells responding to the odorant (increase in intracellular calcium concentration) (3NA12 cells): 15 cells

CCCCCCC=O [heptaldehyde]
Cells responding to each odorant (3NA12 cells): ~1% | Cells responding to the odorant (increase in intracellular calcium concentration) (3NA12 cells): 17 cells

EGF: epidermal growth factor (Gibco BRL)
Normalized # of NST+ Cells ([1]; 33° C., 10 ng.ml^−1, in the presence of 40 U.ml^−1 interferon, normalized to that point): 1.7 ± 0.2 | Effect on the number of NST+ cells (in words) [1]: increased the number of NST+ cells; also recorded: greatest increase of NST+ cells

Interferon: murine γ-interferon (Genzyme), stimulates transcription of the transgene
EC50 (increase in number of NST+ cells) ([1]; 33° C., permissive, seven days after plating, sigmoidal curve fit): 0.4 U.ml^−1 | Normalized # of NST+ Cells ([1]; 33° C., interferon 40 U.ml^−1, normalized to NST+ cells cultured in the absence of interferon): 2.0 ± 0.2 | Normalized # of NST+ Cells ([1]; 37° C., interferon 40 U.ml^−1, normalized to absence of interferon): 1.9 ± 0.1 | Effect on the number of NST+ cells (in words) [1]: significant increase

L-carvone
Cells responding to each odorant (3NA12 cells): ~1% | Cells responding to the odorant (increase in intracellular calcium concentration) (3NA12 cells): 16 cells

B1: NGF: 2.5 S nerve growth factor (Gibco BRL) (protein, UniProt P01139 122-241, looked up)
Beta-nerve growth factor: SSTHPVFHMGEFSVCDSVSVWVGDKTTATDIKGKEVTVLAEVNINNSVFRQYFFETKCRASNPVESGCRGIDSKHWNSYCTTTHTFVKALTTDEKQAAWRFIRIDTACVCVLSRKATRRG
modifications: Beta-nerve growth factor
OMP expression detected by Western blot (in words) [2]: barely detectable | Normalized # of NST+ Cells [1, 3]: 1.5 ± 0.2 | Effect on the number of NST+ cells (in words) [1]: increased the number of NST+ cells

B2: BDNF: brain-derived neurotrophic factor (Peprotech) (protein, UniProt P23560 129-247, looked up)
Neurotrophic factor BDNF: HSDPARRGELSVCDSISEWVTAADKKTAVDMSGGTVTVLEKVPVSKGQLKQYFYETKCNPMGYTKEGCRGIDKRHWNSQCRTTQSYVRALTMDSKKRIGWRFIRIDTSCVCTLTIKRGR
modifications: Neurotrophic factor BDNF
OMP expression detected by Western blot (in words) [2]: significant expression of OMP could be observed; also recorded: to a lesser degree, was detected | Normalized # of NST+ Cells [1, 3]: 1.3 ± 0.2 | Normalized # of NST+ Cells ([1]; 37° C., 100 ng.ml^−1): 1.3 ± 0.2 | Effect on the number of NST+ cells (in words) [1]: no effect
